≈ marks a conversion by molar mass, not a printed value.
Assays:
Assay type in all cases: cell-based
[1] = tested on: Klebsiella pneumoniae
From the text: (§1) Minimum Inhibitory Concentration (MIC) of a peptide of SEQ D NO: 4 (abbreviated PLP-3) and colistin against a collection of clinically relevant and commercially available bacterial strains was obtained via broth microdilution. The protocol for antimicrobial activity determination, detailed below, consisted in a modification of Clinical & Laboratory Standards Institute (CLSI) Guidelines.
(§2) MIC is the value defined as the lowest concentration of an antimicrobial, in these tests either PLP-3 or colistin, which inhibits the macroscopic growth of a bacterial strain after 18-22 h incubation at 37° C. The results from these assays are obtained via visual identification of the bacterial bottom at the end of the wells of the testing plate. Since the wells contain decreasing concentrations of the compounds, the final result is indicated as a concentration, MIC, expressed in μg/mL of the agent (in this case PLP-3 or colistin).
(§3) Bacterial strains were streaked in Columbia Agar plates (Columbia Agar with 5% Sheep Blood 90 mm Stacker plates, BD) and incubated overnight at 37° C. Polypropylene round bottomed 96-well plates were filled with 50 μL/well of Mueller-Hinton Broth (MHB, CM0405, 500 g, ThermoFisher Scientific™ Oxoid™) and 50 μL of either colistin or PLP-3 (at 4× the chosen initial concentration of the test) were added to the first well of each row of the plate followed by serial dilutions up until the 10th column of the plate.
(§4) Finally, strain inoculums were prepared by diluting 1:100 0.5 McFarland solutions in MHB. Plates were then inoculated with 50 μL of the inoculums and covered with film before 18 to 22 h incubation at 37 C.
(§5) Three biological and three technical replicates were performed per strain.
(§6) Broth microdilution testing of 15 strains of each species provided MIC50 and […] values (Table 4). Strains were either from clinical origin, relevant to current clinical situation, or commercially available strains belonging to the American Type Culture Collection (ATCC), namely: A. baumannii 17978 and 19606, K. pneumoniae 13883 and P. aeruginosa 27853.
(§7) This panel represents an example of relevant MDR, colistin resistant and colistin susceptible strains from which to compare results. The minimum inhibitory concentration (MIC) is the lowest concentration of a chemical, usually a drug, which prevents visible growth of a bacterium or bacteria. MIC50 represents the antimicrobial concentration value that inhibits the growth of 50% of the bacterial strains and […] of each species from the tested panel of strains. Being colistin both a peptide and a last-resource antibiotic, it was included in these assays for comparison against a commercially available antibiotic.

[2] = tested on: Acinetobacter baumannii
From the text: as §1, §2, §3, §4, §5, §6, §7

[3] = tested on: Enterococcus faecium; conditions: 22 strains (11/22 VRE)
From the text: (§8) The Minimum Inhibitory Concentration (MIC) of PLP-3 peptide (SEQ D NO: 4) against a collection of clinically relevant Gram-positive bacterial strains was obtained via broth microdilution. The tested species Staphylococcus aureus, Enterococcus faecium and Enterococcus faecalis. The followed protocol was based on the Clinical & Laboratory Standards Institute (CLSI) and EUCAST Guidelines.
(§9) In these tests, MIC is the value defined as the lowest concentration of an antimicrobial which inhibits the macroscopic growth of a bacterial strain after 16-20 hours of incubation at 37° C. The results of this assay were obtained by visual identification of bacterial growth at the bottom of each well plate. Since the wells contained decreasing concentrations of the peptide, the final result was indicated as a concentration, MIC, expressed in μg/mL of the PLP-3.
(§10) Bacterial strains were streaked in Columbia Agar plates (Columbia Agar with 5% Sheep Blood 90 mm Stacker plates, Becton Dickinson) and incubated overnight at 37° C. Polypropylene round bottomed 96-well plates were filled with 50 μL/well of Cation Adjusted Mueller-Hinton Broth (CAMHB, 90922, 500 g, Sigma-Aldrich) and 50 μL of PLP-3 (at 4 times higher the chosen initial concentration of the test) were added to the first well of each row of the plate followed by 1:2 serial dilutions up until the 10th column of the plate. The 11th and 12th columns were used for positive and negative growth controls.
(§11) Stain inoculums were standardized by preparing a 1:100 dilution of 0.5 McFarland solutions in CAMHB. Plates were inoculated with 50 μL of the diluted inoculums and covered with an adhesive film before 16-20 hours of incubation at 37° C.
(§12) Two biological and two technical replicates were performed per strain.
(§13) Broth microdilution testing from a panel of clinical strains of each specie provided MIC50 and […] values (Table 7). Strains were either from clinical origin, relevant to current clinical situation, or commercially available strains belonging to the American Type Culture Collection (ATCC), S. aureus 29213. Regarding clinical strains collection, 10 out of the 19 S. aureus strains were resistant to methicillin (MRSA), and 11 out of the 22 E. faecium strains were resistant to Vancomycin (VRE).
(§14) MIC50 value represents the antimicrobial concentration value that inhibits the growth of 50% of the bacterial strain panel. […] value represents the antimicrobial concentration value that inhibits the growth of 90% the bacterial strain collection.

[4] = tested on: Staphylococcus aureus; conditions: 19 strains (10/19 MRSA)
From the text: as §8, §9, §10, §11, §12, §13, §14

[5] = tested on: Enterococcus faecalis; conditions: 15 strains
From the text: as §8, §9, §10, §11, §12, §13, §14

[6] = panel of 15 K. pneumoniae strains
[7] = panel of 15 A. baumannii strains

CC(C)C[C@@H]1NC(=O)[C@H](CCCNC(=N)N)NC(=O)[C@H](CCCNC(=N)N)NC(=O)[C@H](CCCNC(=N)N)NC(=O)[C@H]2CCCN2C(=O)[C@H](CCCNC(=N)N)NC(=O)[C@H](CCCNC(=N)N)NC(=O)[C@H](C(C)C)NC(=O)[C@@H]2CSSC[C@H](NC1=O)C(=O)N[C@@H](Cc1ccccc1)C(=O)N[C@@H](C(C)C)C(=O)N[C@@H](CCCNC(=N)N)C(=O)N1CCC[C@@H]1C(=O)N[C@@H](CCCCN)C(=O)N[C@@H](Cc1ccccc1)C(=O)N[C@@H](C(C)C)C(=O)N[C@@H](C(C)C)C(=O)N2 [PLP-3, cyclo[RRRLCFVRPKFVVCVRRP]]
MIC range [1]: 2 to 32 µg/mL | MIC50 [1, 6]: 4 µg/mL (≈ 1.76 µM) | MIC90 [1, 6]: 16 µg/mL (≈ 7.06 µM) | Range of MICs [2]: 1 to 2 µg/mL | MIC50 [2, 7]: 1 µg/mL (≈ 0.441 µM) | MIC90 [2, 7]: 2 µg/mL (≈ 0.882 µM) | MIC50 [3]: 2 µg/mL (≈ 0.882 µM) | MIC90 [3]: 2 µg/mL (≈ 0.882 µM) | MIC50 [4]: 4 µg/mL (≈ 1.76 µM) | MIC90 [4]: 8 µg/mL (≈ 3.53 µM) | MIC50 [5]: 4 µg/mL (≈ 1.76 µM) | MIC90 [5]: 4 µg/mL (≈ 1.76 µM)

— patent US20260242418A1, “CYCLIC PEPTIDES WITH ANTIBACTERIAL ACTIVITY AGAINST MULTIDRUG RESISTANT (MDR) PATHOGENS” (priority 2022, published 2026)
